For test [1], the system named is HEK293. As to the kind of experiment: NOD2 signaling inhibitors in MDP-stimulated cells, cell-based, uHTS, luminescence (AID 2001). The test is classed as functional. Particulars: Homo sapiens.
For test [2], the target named is T1, Small ubiquitin-related modifier 1 (Homo sapiens, UniProt P63165). As to the kind of experiment: SUMO1 protein interaction blockers, potency – biochemical, fluorescence polarization, uHTS hits, dose response (AID 624382). The test is classed as functional. Particulars: read-out: IC50_Mean. In general terms: Fluorescence polarisation rises when a labelled molecule tumbles more slowly, as on binding a larger partner.

The target of another test is T2, Caspase-6 (Homo sapiens, UniProt P55212).
T2 sequence (P55212 whole entry): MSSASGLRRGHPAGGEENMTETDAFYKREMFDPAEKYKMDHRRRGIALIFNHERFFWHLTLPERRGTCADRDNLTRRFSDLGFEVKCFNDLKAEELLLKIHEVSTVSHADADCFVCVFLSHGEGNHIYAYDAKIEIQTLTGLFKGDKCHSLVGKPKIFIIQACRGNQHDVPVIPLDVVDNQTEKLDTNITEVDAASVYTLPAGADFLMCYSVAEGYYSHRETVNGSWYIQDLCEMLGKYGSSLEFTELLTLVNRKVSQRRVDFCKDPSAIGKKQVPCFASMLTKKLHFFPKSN
As to the kind of experiment: inhibition of CASP6 peptide cleavage – biochemical, VEID-R110 fluorescence, cherry-pick, dose response (AID 720632).

Test [3] has as its target Nucleotide-binding oligomerization domain-containing protein 2 (Homo sapiens, UniProt Q9HC29). As to the kind of experiment: inhibition of NOD2-driven NF-kB reporter – cell-based, luminescence, uHTS, HEK293 (AID 1566). The test is classed as functional.
The test system of test [4] is HEK293. As to the kind of experiment: cells. The test is classed as functional, cell-based. The following applies: Homo sapiens.
Test [5] addresses Dual specificity protein phosphatase 3 (Homo sapiens, UniProt P51452). As to the kind of experiment: VHR phosphatase inhibition, dose response, selectivity assay for STEP inhibitor project, biochemical (AID 602374). The class given is functional. Particulars: read-out: IC50_Mean.
In test [6] the target is T3, Low molecular weight phosphotyrosine protein phosphatase (Homo sapiens, UniProt P24666).
T3 sequence (P24666 whole entry): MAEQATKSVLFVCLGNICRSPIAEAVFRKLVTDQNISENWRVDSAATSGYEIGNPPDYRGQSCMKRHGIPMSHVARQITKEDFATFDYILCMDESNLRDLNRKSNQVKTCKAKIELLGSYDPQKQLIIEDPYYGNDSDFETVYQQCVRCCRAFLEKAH
The class given is functional. Particulars: read-out: IC50_Mean.

Test [7] has as its target T1, Small ubiquitin-related modifier 1. As to the kind of experiment: SUMO1 protein-protein binding blockers, potency – biochemical, FRET, dose response (AID 624383). The test is classed as functional. The following applies: read-out: IC50_Mean.
The test system of test [8] is HEK293. As to the kind of experiment: cells. The class given is functional, cell-based. The following applies: Homo sapiens. This is another data set of the same source.
Test [9] has as its target T4, Tyrosine-protein phosphatase non-receptor type 5 (Homo sapiens, UniProt P54829).
T4 sequence (P54829 whole entry): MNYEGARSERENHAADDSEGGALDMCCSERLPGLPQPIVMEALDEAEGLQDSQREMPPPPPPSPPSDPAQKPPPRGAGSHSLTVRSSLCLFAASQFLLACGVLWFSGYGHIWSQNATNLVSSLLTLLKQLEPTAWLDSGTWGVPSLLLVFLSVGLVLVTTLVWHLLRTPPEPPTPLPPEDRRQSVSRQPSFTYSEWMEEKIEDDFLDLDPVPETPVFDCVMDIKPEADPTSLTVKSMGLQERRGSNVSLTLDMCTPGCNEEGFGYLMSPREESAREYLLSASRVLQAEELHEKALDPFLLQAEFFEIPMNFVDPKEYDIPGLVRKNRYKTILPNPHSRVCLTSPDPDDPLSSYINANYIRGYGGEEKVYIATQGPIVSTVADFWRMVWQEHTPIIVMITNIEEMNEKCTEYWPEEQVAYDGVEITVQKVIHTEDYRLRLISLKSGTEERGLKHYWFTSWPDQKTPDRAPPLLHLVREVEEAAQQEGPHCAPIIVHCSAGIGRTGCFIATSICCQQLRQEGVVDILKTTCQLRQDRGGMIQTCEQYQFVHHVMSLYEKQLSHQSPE
As to the kind of experiment: PTPN5 enzyme inhibition – biochemical, fluorescence intensity, uHTS hits, confirmation (AID 602372). The following applies: read-out: IC50_Mean. The class given is functional.

Test [10] deals with HEK293. As to the kind of experiment: inhibition of NOD1-driven NF-kB reporter – cell-based, luminescence, uHTS, primary screen (AID 1578). The class given is functional. Particulars: Homo sapiens.
In test [11] the target is T3, Low molecular weight phosphotyrosine protein phosphatase. The class given is functional. Particulars: read-out: IC50_Mean. The source holds these as a separate data set.
Test [12] addresses T5, Tyrosine-protein phosphatase non-receptor type 11 (Homo sapiens, UniProt Q06124).
T5 sequence (Q06124 whole entry): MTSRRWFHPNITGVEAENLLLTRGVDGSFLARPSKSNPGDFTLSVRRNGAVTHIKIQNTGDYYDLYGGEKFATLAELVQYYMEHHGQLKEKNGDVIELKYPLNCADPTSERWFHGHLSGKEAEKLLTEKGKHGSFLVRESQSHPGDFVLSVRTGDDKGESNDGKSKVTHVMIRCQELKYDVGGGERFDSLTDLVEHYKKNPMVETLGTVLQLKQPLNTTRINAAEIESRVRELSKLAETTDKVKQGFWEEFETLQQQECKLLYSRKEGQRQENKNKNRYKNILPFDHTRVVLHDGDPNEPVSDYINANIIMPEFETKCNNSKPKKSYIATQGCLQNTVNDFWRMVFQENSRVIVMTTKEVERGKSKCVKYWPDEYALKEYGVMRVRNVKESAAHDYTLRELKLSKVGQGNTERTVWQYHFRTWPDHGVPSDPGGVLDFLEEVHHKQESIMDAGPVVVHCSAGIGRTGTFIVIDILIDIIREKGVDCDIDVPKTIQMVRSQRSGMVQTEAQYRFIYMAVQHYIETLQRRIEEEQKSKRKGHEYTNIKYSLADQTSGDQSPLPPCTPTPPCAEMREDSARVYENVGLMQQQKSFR
As to the kind of experiment: PTPN11 enzyme inhibitors – biochemical, selectivity assay for STEP inhibitor project, dose response (AID 602367). The class given is functional. The following applies: read-out: IC50_Mean.

In another test the target is Caspase-8 (Homo sapiens, UniProt Q14790). As to the kind of experiment: inhibitors of purified CASP8 protease – biochemical, Z-IETD-R110 fluorescence, cherry-picked samples, selectivity assay for caspase-6 inhibitor project, dose response (AID 743294).
The target of test [13] is T6, Carboxy-terminal domain RNA polymerase II polypeptide A small phosphatase 1 (Homo sapiens, UniProt Q9GZU7).
T6 sequence (Q9GZU7 whole entry): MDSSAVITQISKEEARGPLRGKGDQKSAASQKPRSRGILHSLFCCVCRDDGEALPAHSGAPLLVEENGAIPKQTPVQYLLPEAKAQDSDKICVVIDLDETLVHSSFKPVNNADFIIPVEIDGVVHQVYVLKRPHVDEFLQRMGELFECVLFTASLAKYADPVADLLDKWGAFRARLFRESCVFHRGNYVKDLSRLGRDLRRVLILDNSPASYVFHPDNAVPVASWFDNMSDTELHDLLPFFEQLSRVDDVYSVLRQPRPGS
As to the kind of experiment: CTDSP1 inhibitors, concentration-response, biochemical, absorbance readout, ultra-high-throughput screen actives (AID 540297). The class given is functional.

Test [14] deals with T7, Probable nicotinate-nucleotide adenylyltransferase (Staphylococcus aureus (strain N315), UniProt P65502). The class given is functional, Staphylococcus aureus subsp. aureus N315. Particulars: read-out: IC50_Mean.
Test [15] addresses T7, Probable nicotinate-nucleotide adenylyltransferase. The class given is functional, Staphylococcus aureus subsp. aureus N315.

The record followed here is ChEMBL document CHEMBL1201862, “PubChem BioAssay data set” (2004).

The source made the active and inactive calls.

T1 sequence (P63165 whole entry): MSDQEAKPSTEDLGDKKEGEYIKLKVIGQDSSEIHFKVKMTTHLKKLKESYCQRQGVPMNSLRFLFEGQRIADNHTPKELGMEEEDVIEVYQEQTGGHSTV
T7 sequence (P65502 whole entry): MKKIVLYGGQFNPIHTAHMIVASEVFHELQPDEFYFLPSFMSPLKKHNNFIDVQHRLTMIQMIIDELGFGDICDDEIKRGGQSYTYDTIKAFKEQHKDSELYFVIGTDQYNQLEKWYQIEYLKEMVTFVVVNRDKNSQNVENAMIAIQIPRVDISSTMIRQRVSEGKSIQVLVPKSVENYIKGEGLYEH
Dual specificity protein phosphatase 3, sequence (P51452 whole entry): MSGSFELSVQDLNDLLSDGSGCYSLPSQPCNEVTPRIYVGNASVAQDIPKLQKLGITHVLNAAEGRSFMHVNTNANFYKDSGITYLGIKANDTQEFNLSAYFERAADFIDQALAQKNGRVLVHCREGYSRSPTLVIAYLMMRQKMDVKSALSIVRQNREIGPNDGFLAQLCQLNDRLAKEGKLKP
Nucleotide-binding oligomerization domain-containing protein 2, sequence (Q9HC29 whole entry, the tested form may be a part): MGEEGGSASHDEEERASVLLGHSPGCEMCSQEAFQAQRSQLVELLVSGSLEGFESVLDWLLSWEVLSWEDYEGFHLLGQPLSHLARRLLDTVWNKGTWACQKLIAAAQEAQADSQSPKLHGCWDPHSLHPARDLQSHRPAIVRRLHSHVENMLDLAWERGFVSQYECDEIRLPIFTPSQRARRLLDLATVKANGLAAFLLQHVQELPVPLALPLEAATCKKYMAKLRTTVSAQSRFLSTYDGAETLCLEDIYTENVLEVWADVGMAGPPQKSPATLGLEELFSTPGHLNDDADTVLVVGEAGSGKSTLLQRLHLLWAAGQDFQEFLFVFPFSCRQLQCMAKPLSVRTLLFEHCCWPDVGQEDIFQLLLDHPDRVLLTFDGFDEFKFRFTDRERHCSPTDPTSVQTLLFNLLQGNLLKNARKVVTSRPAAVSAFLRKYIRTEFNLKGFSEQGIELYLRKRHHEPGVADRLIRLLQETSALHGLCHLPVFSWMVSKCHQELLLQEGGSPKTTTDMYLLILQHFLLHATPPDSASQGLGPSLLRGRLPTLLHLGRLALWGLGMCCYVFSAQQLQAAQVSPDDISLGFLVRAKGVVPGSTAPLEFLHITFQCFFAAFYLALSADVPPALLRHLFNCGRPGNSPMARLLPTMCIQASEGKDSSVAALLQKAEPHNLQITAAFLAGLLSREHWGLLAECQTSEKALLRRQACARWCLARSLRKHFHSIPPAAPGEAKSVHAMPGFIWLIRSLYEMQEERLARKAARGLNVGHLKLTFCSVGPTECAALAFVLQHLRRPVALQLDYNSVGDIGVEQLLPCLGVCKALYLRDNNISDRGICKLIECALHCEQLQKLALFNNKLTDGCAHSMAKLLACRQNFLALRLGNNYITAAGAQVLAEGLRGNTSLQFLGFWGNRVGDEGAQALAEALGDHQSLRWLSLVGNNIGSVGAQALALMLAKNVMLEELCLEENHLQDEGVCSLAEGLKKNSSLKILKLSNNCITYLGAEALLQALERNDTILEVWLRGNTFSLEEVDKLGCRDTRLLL
Caspase-8, sequence (Q14790 217-374 limits assumed): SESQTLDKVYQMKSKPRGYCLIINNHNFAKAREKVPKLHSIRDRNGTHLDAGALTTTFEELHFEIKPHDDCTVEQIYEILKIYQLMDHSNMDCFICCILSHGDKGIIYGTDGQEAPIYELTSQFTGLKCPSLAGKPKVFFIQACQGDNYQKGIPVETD
Caspase-8, sequence (Q14790 385-479 limits assumed): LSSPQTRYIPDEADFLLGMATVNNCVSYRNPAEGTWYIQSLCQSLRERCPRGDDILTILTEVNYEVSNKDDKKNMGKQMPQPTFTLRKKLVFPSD

In the case of `Cc1c(CCC(=O)O)c(=O)oc2c(C)c(OCc3ccccc3Cl)ccc12`, the IC50 is > 20 µM (inactive) in the test on HEK293 [1]; > 66.6 µM (inactive) in test [2]; > 20 µM (inactive) in the test on HEK293 [4]; 1.56 µM (active) in [5]; 4.25 µM (active) in [6]; 9.18 µM (active) in test [7]. For the same compound, the IC50 in the test with HEK293 [8] was 9.68 µM (active); in [9] it was 2.94 µM (active); in test [11], 6.36 µM (active); in test [12], 1.55 µM (active); in [13], 1.99 µM (active). The values for the half-maximal activity concentration (AC50) on Caspase-6 and on Caspase-8 were 1.38 µM (active) and > 70 µM (inactive), respectively. Besides, the EC50 – broadly, the concentration giving half of the maximal effect – in test [3] is 2.94 µM (active); with HEK293 [10], > 20 µM (inactive).

Consider `Cc1ccc(-c2cc(C(=O)Nc3ccc(S(=O)(=O)Nc4onc(C)c4C)cc3)c3ccccc3n2)cc1`, for which the IC50 in [14] was 20.1 µM (active); in test [15] it was 5.56 µM (active).
